Laboratory results taken from patent US20250042886A1, “BIS(HETERO)ARYL THIOETHER OXADIAZINES AS FUNGICIDAL COMPOUNDS” (Bayer Aktiengesellschaft, priority 2021, published 2025).

Key:
[1] = Measurement of Log P values by HPLC on reversed phase columns (EEC directive 79/831 Annex V.A8); format: physicochemical; conditions: Table 1, compounds of formula (I); method [a]: LC-UV, acidic range, 0.1% formic acid in water and acetonitrile
[2] = test system: Colletotrichum lindemuthianum; assay: Colletotrichum lindemuthianum in vitro cell test; format: cell-based; conditions: 144 h, liquid culture, 6 days incubation, read-out: efficacy (inhibition of fungal growth); for inhibition at 50 µM: 50 μMol/l of active ingredient; for inhibition at 20 ppm: 20 ppm of active ingredient
Procedure: (§1) B-7. Colletotrichum lindemuthianum In Vitro Cell Test • Solvent: DMSO • Culture medium: 14.6 g anhydrous D-glucose (VWR), 7.1 g Mycological Peptone (Oxoid), 1.4 g granulated Yeast Extract (Merck), QSP 1 liter • Inoculum: spores suspension Fungicides were solubilized in DMSO and the solution used to prepare the required range of concentrations. […] A spore suspension of C. lindemuthianum was prepared and diluted to the desired spore density. Fungicides were evaluated for their ability to inhibit spores germination and mycelium growth in liquid culture assay. The compounds were added in the desired concentration to the culture medium with spores. After 6 days incubation, fungi-toxicity of compounds was determined by spectrometric measurement of mycelium growth. Inhibition of fungal growth was determined by comparing the absorbance values in wells containing the fungicides with the absorbance in control wells without fungicides.

Fusarium culmorum = Fusarium culmorum in vitro cell test; format: cell-based; conditions: 120 h, 50 μMol/l of active ingredient, liquid culture, 5 days incubation, read-out: efficacy (inhibition of fungal growth)
Procedure: B-10. Fusarium culmorum In Vitro Cell Test • Solvent: DMSO • Culture medium: 1 g KH2PO4 (VWR), 1 g K2HPO4 (VWR), 0.5 g Urea (VWR), 3 g KNO3 (Prolabo), 10 g saccharose (VWR), 0.5 g MgSO4, 7H2O (Sigma), 0.07 g CaCl2, 2H2O (Prolabo), 0.2 mg MnSO4, H2O (Sigma), 0.6 mg CuSO4, 5H2O (Sigma), 7.9 mg ZnSO4, 7H2O (Sigma), 0.1 mg H3BO3 (Merck), 0.14 mg NaMoO4, 2H2O (Sigma), 2 mg thiamine (Sigma), 0.1 mg biotine (VWR), 4 mg FeSO4, 7H2O (Sigma), QSP 1 liter • Inoculum: spores suspension
Fungicides were solubilized in DMSO and the solution used to prepare the required range of concentrations. The final concentration of DMSO used in the assay was ≤1%.
A spore suspension of F. culmorum was prepared and diluted to the desired spore density.
Fungicides were evaluated for their ability to inhibit spore germination and mycelium growth in liquid culture assay. The compounds were added in the desired concentration to the culture medium with spores. After 5 days incubation, fungi-toxicity of compounds was determined by spectrometric measurement of mycelium growth. Inhibition of fungal growth was determined by comparing the absorbance values in wells containing the fungicides with the absorbance in control wells without fungicides.

Botrytis cinerea [3] = assay: Botrytis cinerea in vitro cell test; format: cell-based; conditions: 144 h, 50 μMol/l of active ingredient, liquid culture, 6 days incubation, read-out: efficacy (inhibition of fungal growth)
Procedure, shortened: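 Compounds from DMSO stocks added at a range of concentrations to a defined mineral-salt/sucrose liquid medium inoculated with B. cinerea spores. After 6 days' incubation, mycelium growth was read by absorbance; inhibition of germination and growth was calculated against fungicide-free control wells.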

Pyrenophora teres = Pyrenophora teres in vitro cell test; format: cell-based; conditions: 144 h, 50 μMol/l of active ingredient, liquid culture, 6 days incubation, read-out: efficacy (inhibition of fungal growth)
Procedure: as §1, with “B-8. Pyrenophora teres In” for “B-7. Colletotrichum lindemuthianum In”, “Inoculum: spore” for “Inoculum: spores”, “of P. teres” for “of C. lindemuthianum”, “inhibit spore” for “inhibit spores”

Pyricularia oryzae = assay: microbe, parasite or virus in culture; format: cell-based; conditions: 120 h, read-out: efficacy (inhibition of fungal growth), 50 μMol/l of active ingredient, liquid culture, 5 days incubation
Alternaria alternata = Alternaria alternata in vitro cell test; format: cell-based; conditions: 120 h, 50 μMol/l of active ingredient, liquid culture, 5 days incubation, read-out: efficacy (inhibition of fungal growth)
Procedure: as §1, with “B-5. Alternaria alternata In” for “B-7. Colletotrichum lindemuthianum In”, “of A. alternata” for “of C. lindemuthianum”, “inhibit spore” for “inhibit spores”, “After 5” for “After 6”

[4] = test system: Colletotrichum lindemuthianum; assay: In vivo preventive test on Colletotrichum lindemuthianum (leaf spot on bean); conditions: 168 h, 500 ppm of active ingredient, sprayed on young bean plants 24 h before inoculation, evaluated 7 days after inoculation, read-out: efficacy
Procedure: (§2) B-4. […] The active ingredients were made soluble and homogenized in a mixture of Dimethyl sulfoxide/Acetone//Tween® 80 and then diluted in water to the desired concentration. The young plants of bean were treated by spraying the active ingredient prepared as described above. Control plants were treated only with an aqueous solution of Acetone/Dimethyl sulfoxide/Tween® 80. After 24 hours, the plants were contaminated by spraying the leaves with an aqueous suspension of Colletotrichum lindemuthianum spores.

Alternaria brassicae = assay: In vivo preventive test on Alternaria brassicae (leaf spot on radish or cabbage); conditions: 500 ppm of active ingredient, sprayed on young radish or cabbage plants 24 h before inoculation, evaluated 3 to 4 days after inoculation, read-out: efficacy
Procedure: as §2, with “B-1.” for “B-4.”, “radish or cabbage” for “bean”, “Alternaria brassicae” for “Colletotrichum lindemuthianum”

Botrytis cinerea [5] = assay: In vivo preventive test on Botrytis cinerea (grey mould); conditions: 500 ppm of active ingredient, sprayed on young gherkin or cabbage plants 24 h before inoculation, evaluated 4 to 5 days after inoculation, read-out: efficacy
Procedure: The active ingredients were made soluble and homogenized in a mixture of Dimethyl sulfoxide/Acetone//Tween® 80 and then diluted in water to the desired concentration. The young plants of gherkin or cabbage were treated by spraying the active ingredient prepared as described above. Control plants were treated only with an aqueous solution of Acetone/Dimethyl sulfoxide/Tween® 80. After 24 hours, the plants were contaminated by spraying the leaves with an aqueous suspension of Botrytis cinerea spores.

| SMILES | chromatographic logP [1] | inhibition at 50 µM [2] | inhibition at 50 µM (Fusarium culmorum) | inhibition at 50 µM (Botrytis cinerea [3]) | inhibition at 50 µM (Pyrenophora teres) | inhibition at 50 µM (Pyricularia oryzae) | inhibition at 50 µM (Alternaria alternata) | inhibition at 20 ppm [2] | pest or weed control at 500 ppm [4] | pest or weed control at 500 ppm (Alternaria brassicae) | pest or weed control at 500 ppm (Botrytis cinerea [5]) |
| --- | --- | --- | --- | --- | --- | --- | --- | --- | --- | --- | --- |
| Cc1ccc(C2CON=C(c3c(Sc4cccc(Cl)c4F)nnc(C)c3C)N2)s1 (racemic) [Compound I-103] | 3.21 | 90 to 100% | 80 to 89% | 90 to 100% | 90 to 100% | 90 to 100% | 90 to 100% | – | – | – | – |
| Cc1ccc(C[C@H]2CON=C(c3nc(C)ncc3Sc3cccc(OC(F)(F)F)c3)N2)c(C)c1 (racemic) [Compound I-026] | 5.39 | – | – | – | – | – | – | 70 to 79% | 80 to 89% | – | – |
| Cc1cc([C@H]2CON=C(c3c(Sc4ccccc4Cl)nnc(C)c3C)N2)c(C)s1 (racemic) [Compound I-059] | 3.31 | – | – | 90 to 100% | 90 to 100% | – | 80 to 89% | – | – | 90 to 100% | 90 to 100% |
| Cc1ccc([C@H]2CON=C(c3c(Sc4ccccc4)nnc4ccccc34)N2)s1 (racemic) [Compound I-097] | 3.14 | 90 to 100% | 80 to 89% | 90 to 100% | 90 to 100% | 80 to 89% | 80 to 89% | – | – | 80 to 89% | 90 to 100% |
| Cc1ccc([C@H]2CON=C(c3c(Sc4cccc(Cl)c4Cl)nnc4ccccc34)N2)s1 (racemic) [Compound I-131] | 3.8 | 90 to 100% | – | 90 to 100% | 90 to 100% | 80 to 89% | 90 to 100% | – | – | 90 to 100% | 90 to 100% |
| Cc1cc([C@H]2CON=C(c3c(Sc4cccc(F)c4)nnc(C)c3C)N2)c(C)s1 (racemic) [Compound I-050] | 3.16 | 90 to 100% | 90 to 100% | 90 to 100% | 90 to 100% | 90 to 100% | 90 to 100% | – | – | 90 to 100% | 90 to 100% |
| Cc1cc([C@H]2CON=C(c3c(Sc4ccc(F)c(F)c4)nnc(C)c3C)N2)c(C)s1 (racemic) [Compound I-091] | 3.33 | 90 to 100% | 90 to 100% | 90 to 100% | 90 to 100% | 80 to 89% | 80 to 89% | – | – | 80 to 89% | 90 to 100% |
| Cc1ccc(C[C@H]2CON=C(c3nc(C)ncc3Sc3cccc(OC(F)(F)F)c3)N2)c(Cl)c1 (racemic) [Compound I-021] | 5.46 | – | – | – | – | – | – | 70 to 79% | 70 to 79% | – | – |
| COc1cccc(Sc2nnc3ccccc3c2C2=NOC[C@H](c3ccc(C)s3)N2)c1 (racemic) [Compound I-090] | 3.21 | 90 to 100% | 90 to 100% | 90 to 100% | 80 to 89% | – | – | – | 80 to 89% | – | 90 to 100% |
| Cc1ccc([C@H]2CON=C(c3c(Sc4cccc(F)c4)nnc(C)c3C)N2)s1 (racemic) [Compound I-125] | 2.83 | 90 to 100% | 90 to 100% | 90 to 100% | 80 to 89% | 80 to 89% | 70 to 79% | – | – | – | – |
| Cc1ccc([C@H]2CON=C(c3c(Sc4ccccc4Cl)nnc4ccccc34)N2)s1 (racemic) [Compound I-067] | 3.4 | 80 to 89% | – | 90 to 100% | 90 to 100% | 70 to 79% | 90 to 100% | – | – | 90 to 100% | 90 to 100% |
| Cc1ccc([C@H]2CON=C(c3c(Sc4ccccc4C)nnc4ccccc34)N2)s1 (racemic) [Compound I-110] | 3.45 | – | – | 90 to 100% | – | – | – | – | 70 to 79% | 90 to 100% | 90 to 100% |
| Cc1ccc(C2CON=C(c3c(Sc4cccc(Cl)c4)nnc(C)c3C)N2)s1 (racemic) [Compound I-104] | 3.14 | 90 to 100% | 90 to 100% | 90 to 100% | 90 to 100% | 90 to 100% | 90 to 100% | – | – | – | – |
| FC(F)(F)c1ccc(Sc2nnc(Cl)cc2C2=NOC[C@@H](Cc3ccc(Cl)cc3Cl)N2)cc1 (racemic) [Compound I-003] | 4.93 | – | – | – | – | – | – | – | 70 to 79% | – | 90 to 100% |
| Cc1ccc(C[C@@H]2CON=C(c3cc(Cl)nnc3Sc3ccc(C(F)(F)F)cc3)N2)c(C)c1 (racemic) [Compound I-027] | 5.31 | – | – | – | – | – | – | – | 90 to 100% | 90 to 100% | – |
| Cc1cc([C@@H]2CON=C(c3c(Sc4cccc(Cl)c4F)nnc(C)c3C)N2)c(C)s1 (racemic) [Compound I-071] | 3.58 | 90 to 100% | 90 to 100% | 90 to 100% | 90 to 100% | 90 to 100% | 90 to 100% | – | – | – | – |
